**Q.** For Cc1c(COC(=O)c2cc(S(N)(=O)=O)c(Cl)cc2NCc2ccco2)no[n+]1[O-] [Example 1, Benzoic acid, 5-(aminosulfonyl)-4-chloro-2-[(2-furanylmethyl)amino]-, (4-methyl-5-oxido-1,2,5-oxadiazol-3-yl)methyl ester], which melting point is on record?
**A.** The melting point was 182 to 183 °C.

**Q.** For Cc1c(COC(=O)COC(=O)c2cc(S(N)(=O)=O)c(Cl)cc2NCc2ccco2)no[n+]1[O-] [Example 2, Benzoic acid, 5-(aminosulfonyl)-4-chloro-2-[(2-furanylmethyl)amino]-, 2-[(4-methyl-5-oxido-1,2,5-oxadiazol-3-yl)methoxy]-2-oxoethyl ester], which melting point is on record?
**A.** Its melting point is 112 to 115 °C.

**Q.** Which melting point does the source give for Cc1c(COC(=O)c2cc(S(N)(=O)=O)c(Cl)cc2N)no[n+]1[O-] [Example 3, Benzoic acid, 2-amino-5-(aminosulfonyl)-4-chloro-, (4-methyl-5-oxido-1,2,5-oxadiazol-3-yl)methyl ester] here?
**A.** Its melting point is 169 to 172 °C.

Source: US20080275093A1, “Diuretic Compounds Comprising Heterocyclic Nitric Oxide Donor Groups, Compositions and Methods of Use” (NitroMed, Inc., priority 2004, published 2008)
